From PubChem BioAssay (NCI)
Several values for one entry are separate records, joined by “and”; a condition that tells them apart may be missing. Equal entries are not always repeated.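 Cells were grown in 96-well plates and exposed to each compound for 48 hours at five concentrations; endpoints were interpolated linearly between bracketing concentrations, or set to the highest concentration if not reached. GI50 = concentration required for 50% inhibition of growth. TGI: total growth inhibition.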

Key:
Assay in all cases: NCI anticancer screen, dose series, 48 h
HL-60(TB) leukemia = tested on: HL-60(TB) leukemia
OVCAR-5 ovarian = tested on: OVCAR-5 ovarian
HOP-62 NSCLC = tested on: HOP-62 NSCLC
TK-10 renal = tested on: TK-10 renal
SK-OV-3 ovarian = tested on: SK-OV-3 ovarian
SN12C renal = tested on: SN12C renal
OVCAR-4 ovarian = tested on: OVCAR-4 ovarian
IGROV1 ovarian = tested on: IGROV1 ovarian
MDA-MB-435 = tested on: MDA-MB-435
OVCAR-3 ovarian = tested on: OVCAR-3 ovarian

Compound | TGI (HL-60(TB) leukemia) | TGI (OVCAR-5 ovarian) [µM] | TGI (HOP-62 NSCLC) | TGI (TK-10 renal) | TGI (SK-OV-3 ovarian) | TGI (SN12C renal) [µM] | TGI (OVCAR-4 ovarian) [µM] | TGI (IGROV1 ovarian) | GI50 (HL-60(TB) leukemia) [µM] | GI50 (OVCAR-5 ovarian) [µM] | GI50 (HOP-62 NSCLC) [µM] | GI50 (MDA-MB-435) [µM] | TGI (MDA-MB-435) [µM] | GI50 (TK-10 renal) [µM] | GI50 (OVCAR-3 ovarian) [µM] | TGI (OVCAR-3 ovarian) [µM] | GI50 (SN12C renal) [µM] | GI50 (OVCAR-4 ovarian) | GI50 (IGROV1 ovarian) [µM] | GI50 (SK-OV-3 ovarian) [µM]
Cl/C(N=Nc1ccccc1)=N/Nc1ccccc1 | > 100 µM | > 100 | > 100 µM | > 100 µM | > 100 µM | > 100 | > 100 | > 100 µM |  |  |  |  |  |  |  |  |  |  |  | 
O=C(/C=C/c1ccc(O)c(O)c1)NCc1c[nH]c2ccccc12 | > 100 µM | > 100 | > 100 µM | > 100 µM |  | 84.7 | > 100 | > 100 µM | 70 | > 100 | 44.7 | 41.9 | > 100 | 18.1 | 28.4 | > 100 | 28.4 | > 100 µM | 57.3 | 
NS(=O)(=O)c1ccc(N2N=C3c4ccccc4CC3C2c2cccs2)cc1 (stereo not drawn) |  | > 100 | 36.8 µM | 34.1 µM | > 100 µM | 48.9 | > 100 | 89.9 µM |  | 26.6 | 16.9 | 19.3 | 48.1 | 13.2 | 24.8 | 47.8 | 23.5 | > 100 µM | 30 | 48
O=C(Nc1ccc(F)cc1F)c1cc(Cl)ccc1O |  | > 100 | 4.37 µM | 31.8 µM | 4.85 µM | 8.1 | > 100 | > 100 µM |  | 4.4 | 1.2 | 1.21 | 8.53 | 5.53 | 0.955 | 16.8 | 1.29 | 0.636 µM | 1.49 | 0.722
COC(=O)C1C(=O)CC2CCCCC21 (stereo not drawn) | > 100 µM |  | > 100 µM | > 100 µM | > 100 µM | > 100 | > 100 | > 100 µM |  |  |  |  |  |  |  | > 100 |  |  |  | 
Cc1cc(NC(=O)C2C3C=CC(O3)C2C(=O)O)no1 (stereo not drawn) | 40 µM | > 100 | > 100 µM | > 100 µM | > 100 µM | > 100 | > 100 | > 100 µM |  |  |  |  |  |  |  | > 100 |  |  |  | 
CC1(C)C2CCC3(OCCO3)C1C(O)C2 (stereo not drawn) | > 100 µM | > 100 | > 100 µM | > 100 µM |  |  | > 100 | > 100 µM |  |  |  |  |  |  |  | > 100 |  |  |  | 
CN(C)/C=N\c1ccnc(=O)[nH]1 | > 100 µM | > 100 | > 100 µM | > 100 µM | > 100 µM | > 100 | > 100 | > 100 µM |  |  |  |  |  |  |  | > 100 |  |  |  | 
CC(C)(O)/C=C/C(=O)[C@](C)(O)[C@H]1[C@H](O)C[C@@]2(C)[C@@H]3CC=C4[C@@H](C[C@H](O)C(=O)C4(C)C)[C@]3(C)C(=O)C[C@]12C | 0.687 µM and 1.68 µM |  | 0.699 µM and 0.547 µM | 0.473 µM and 0.495 µM | 0.977 µM and 4.71 µM | 28 |  | 0.479 µM and 1.22 µM |  | 0.692 | 0.337 |  |  |  | 0.125 | 1.02 | 0.355 | 0.161 µM and 0.891 µM | 0.211 | 0.566
N#C/C(=C\c1cccc(O)c1O)C(N)=O | 31.1 µM | > 100 | > 100 µM | > 100 µM | 93.7 µM | > 100 | > 100 | > 100 µM |  |  |  |  |  |  |  | > 100 |  |  |  | 
CC(=O)NC(CCCCN)C(=O)NCc1ccccc1 (stereo not drawn) |  | > 100 | > 100 µM | > 100 µM | > 100 µM | > 100 | > 100 | > 100 µM |  |  |  |  |  |  |  | > 100 |  |  |  | 
Cc1c(C(=O)/C=C/C=C/c2ccccc2)[n+](=O)c2ccccc2n1[O-] | > 100 µM | > 100 | 54.5 µM | > 100 µM | > 100 µM | 73.2 | > 100 | 65.5 µM |  |  |  |  |  |  |  | 83.3 |  |  |  | 
CC1(c2cc3c(cc2Br)OCO3)SCCCS1 | 65.9 µM | > 100 | > 100 µM | > 100 µM | > 100 µM | > 100 | > 100 | > 100 µM |  |  |  |  |  |  |  | > 100 |  |  |  | 
Cc1ccc(Oc2ccccc2N)cc1 | 45 µM | > 100 | > 100 µM | > 100 µM | > 100 µM | > 100 | > 100 | > 100 µM |  |  |  |  |  |  |  | 55 |  |  |  | 
NNc1cnn(-c2ccccc2)c(=O)c1Cl | > 100 µM | > 100 | > 100 µM | > 100 µM | > 100 µM | > 100 | > 100 | > 100 µM |  |  |  |  |  |  |  | > 100 |  |  |  | 
Cc1cccc2c1c1ccc3c(c1n2C)C(=O)C=CC3=O | 2.94 µM | 29.5 | 37.8 µM | 7.19 µM | 37.3 µM | 12.8 | 24.3 | 32.5 µM |  |  |  |  |  |  |  | 5.08 |  |  |  | 
CNc1ccc2ncccc2c1[N+](=O)[O-] | > 100 µM | > 100 | > 100 µM | > 100 µM |  | > 100 | > 100 | > 100 µM |  |  |  |  |  |  |  | > 100 |  |  |  | 
Cc1cc(C)nc(/C(=N\NC(N)=O)C(=O)Nc2nc3ccc(C)cc3s2)c1 | > 100 µM | > 100 | > 100 µM | > 100 µM | > 100 µM | > 100 | > 100 | > 100 µM |  |  |  |  |  |  |  | > 100 |  |  |  | 
C#CCNC(=O)ON1C(=O)CCC1=O | > 100 µM | > 100 | > 100 µM | > 100 µM | > 100 µM | > 100 | > 100 | > 100 µM |  |  |  |  |  |  |  | > 100 |  |  |  | 
CCc1cccc(C)c1NC(=O)CCc1nnc2s/c(=C\c3cccc4ccccc34)c(=O)n12 | > 100 µM | > 100 | > 100 µM | > 100 µM | > 100 µM | > 100 | > 100 | > 100 µM |  |  |  |  |  |  |  | > 100 |  |  |  | 
COc1ccc2c(c1OC)-c1c(c3ccc([N+](=O)[O-])cc3c(=O)n1CCCBr)C2=O |  | > 100 | 58.5 µM | > 100 µM | > 100 µM | > 100 |  |  |  | > 100 | 21.8 |  |  | > 100 | > 100 | > 100 | 36.2 |  |  | > 100
